Data: publication PMC4655410, “Hepatitis B virus efficiently infects non-adherent hepatoma cells via human sodium taurocholate cotransporting polypeptide” (Scientific Reports, 2015)
Entries after “also recorded” stand apart in the source; their conditions may differ. Like-named read-outs stand apart in the source and are kept apart here.

What was measured:
HBV [1] = experiment: Inhibition of HBV infection of non-adherent HepG2/NTCPA3 cells (intracellular HBV RNA, real-time qRT-PCR); type: cell-based, Hepatitis B virus (genotype D); details: for IC50: Hepatitis B virus, read-out: IC50 (anti-HBV activity); for Selectivity Index: SI from CC50 and IC50
Experimental: In the case of the non-adherent cell conditions of infection, HepG2 cells, the derived cells, or differentiated HepaRG cells were harvested using 0.25% trypsin/ethylenediaminetetraacetic acid (EDTA) solution (Sigma). After washing once with 10% FBS-DMEM, the resulting cells were suspended in the primary hepatocyte maintenance medium (PMM) consisting of William’s E medium (Sigma) supplemented with 2 mM L-glutamine, 5 μg/ml transferrin (Sigma), 10 ng/ml recombinant human epidermal growth factor (PeproTech, Rocky Hill, NJ, USA), 3 μg/ml insulin, 18 μg/ml hydrocortisone, 40 ng/ml dexamethasone (Sigma), 5 ng/ml sodium selenite (Sigma), 2% DMSO (Wako), 100 U/ml penicillin, and 100 μg/ml streptomycin (Gibco). The suspended cells (1.25 × 10^5 cells) were added to each well following the addition of virus, and were then immediately mixed well in 0.5 ml of PMM supplemented with 4% polyethylene glycol (PEG) 8000 (Sigma) and 2% FBS in each well of a 24-well collagen-coated plate. The resulting mixtures were incubated at 37 °C (0 days post-infection, dpi).
The cells infected in non-adherent or adherent phase were washed three times with phosphate-buffered saline (PBS) at 1 dpi and incubated in fresh PMM supplemented with 10% FBS. The cells were re-seeded at 2 dpi at a density of 2 × 10^4 cells/well (48-well collagen-coated plate) or 4 × 10^4 cells/well (24-well collagen-coated plate) and maintained in PMM supplemented with 10% FBS. The cells and the culture supernatants were collected at each indicated dpi in order to evaluate the amounts of viral proteins, RNA, and DNA.
Simvastatin, proscillaridin A, bufalin, convallatoxin, digitoxin, digoxin, and azelastine were purchased from Sigma. Fluvastatin was from Cayman Chemical Co. (Ann Arbor, MI, USA). The lipopeptide myr-47WT, which is an N-terminally myristoylated peptide consisting of aa 2 to 47 of the preS1 region of HBV, and myr-47N9K, in which Asn at the 9th position is substituted with Lys, were synthesized by Scrum Co. (Tokyo, Japan)[11]. […] These cells (1 × 10^6 cells/ml) were preincubated at room temperature for 1 h in PMM supplemented with a peptide at 400 nM or a compound at the indicated concentration, and were then infected with HBV at 1,000 GEq/cell in the presence of the preS1 peptide or compounds at the same concentration as in the preincubation. The resulting cells were washed three times with PBS at 1 dpi and incubated in fresh PMM supplemented with 10% FBS. Cells were then re-seeded at 2 dpi at a density of 2 × 10^4 cells/well (48-well plate) or 4 × 10^4 cells/well (24-well plate) and maintained in PMM supplemented with 10% FBS. The resulting cells and culture supernatants were collected at each indicated dpi in order to evaluate viral RNA and DNA.
(§1) Total RNA was extracted using the RNeasy Mini Kit (Qiagen, Valencia, CA, USA), followed by DNase digestion using the TURBO DNA-free kit (Ambion, Austin, TX, USA). The resulting RNA preparation was reverse-transcribed using ReverTra Ace qPCR RT Master Mix (TOYOBO, Tokyo, Japan) according to the manufacturer’s protocol. Viral DNA was extracted from culture supernatants using the QIAamp DNA Mini Kit (Qiagen) according to the manufacturer’s protocol. The amounts of viral DNA and RNA were measured by real-time quantitative PCR (qPCR) and real-time quantitative reverse transcriptase (qRT)-PCR, respectively. The amounts of intracellular HBV RNA and supernatant HBV DNA were estimated according to the method described by Yan et al.[11]. The amounts of NTCP and GAPDH mRNAs were estimated by real-time qRT-PCR using the primer pairs 5′-[…]-3′ and 5′-[…]-3′, and 5′-[…]-3′ and 5′-[…]-3′, respectively. Real-time PCR was carried out using the Fast SYBER Green Master Mix (Applied BioSystems) and StepOne Plus Real-Time PCR System (Applied BioSystems). The amounts of HBs and HBe antigens in culture supernatants were estimated by a chemiluminescent immunoassay (SRL Inc., Tokyo, Japan).
Supplementary Figure 4. […]

in vitro = details: human
Experimental: (§2) Cell viability was evaluated using the MTS assay system (CellTiter 96 AQueous One Solution Cell Proliferation Assay, Promega, Madison, WI, USA).
(§3) real-time qRT-PCR in cells harvested at 6 dpi (black bars). Cell viability was measured
(§4) by the MTS assay (black line with a triangle). i. […]
(§5) non-adherent phase (black columns) in the presence of 0, 10 or 30 nM proscillaridin A. […]

HepG2/NTCPA3 cells = experiment: in vitro
Experimental: as §2, §3, §4, §5

HBV [2] = experiment: Supernatant HBe antigen after HBV infection in the presence of compound (chemiluminescence immunoassay); type: cell-based, Hepatitis B virus (genotype D); details: non-adherent HepG2/NTCPA3 cells, HBV 1,000 GEq/cell, supernatant at 12 dpi
Experimental: as §1
Cell viability was measured
Culture supernatants were collected at
antigen was quantified by a chemiluminescence immunoassay. j. HepG2/NTCPA3 cells

NTCP [3] = details: read-out: IC50 for inhibition of NTCP-mediated taurocholic acid uptake; cited from earlier work
NTCP [4] = target: T1, NTCP (Homo sapiens, UniProt Q14973); experiment: Competitive binding assay: compounds versus myr-47WT binding to HepG2/NTCPA3 cells (FACS); details: compounds at 10 μM (proscillaridin A 10 to 100 μM)
T1 construct: expressed in transfected cells; plasmid pEF pGKpuro, puromycin selection
T1 sequence (Q14973 1-349): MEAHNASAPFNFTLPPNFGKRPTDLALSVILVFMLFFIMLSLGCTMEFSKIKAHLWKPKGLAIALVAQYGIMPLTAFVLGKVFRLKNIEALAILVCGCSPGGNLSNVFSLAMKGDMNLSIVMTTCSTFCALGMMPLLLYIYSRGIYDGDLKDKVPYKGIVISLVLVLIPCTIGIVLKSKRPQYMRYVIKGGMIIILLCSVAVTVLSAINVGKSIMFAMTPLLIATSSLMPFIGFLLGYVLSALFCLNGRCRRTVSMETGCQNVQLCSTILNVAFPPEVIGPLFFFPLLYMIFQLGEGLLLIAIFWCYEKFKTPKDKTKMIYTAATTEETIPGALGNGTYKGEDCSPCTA
Experimental: After washing twice with 2% FBS/PBS, the resulting cells were analyzed by FACS analysis.
Supplementary Figure 5. Effects of compounds on the binding ability of preS1 lipopeptide to HepG2/NTCPA3 cells. a and b. HepG2/NTCPA3 cells were pretreated with DMSO for 30 min and then were treated with myr-47N9K (a) or myr-47WT (b) in the presence of DMSO for an additional 30 min. The resulting cells were subjected to FACS analysis. c to h. HepG2/NTCPA3 cells were pretreated with the indicated concentration of each compound for 30 min and then were treated with myr-47WT in the presence of each compound for an additional 30 min. […]
fluvastatin (d), proscillaridin A (e, f and g), and azelastine (h) on preS1 binding were analyzed using FACS analysis, as described in the Materials and Methods section.
(1 picture or pasted object on this page, not shown here)

HBV [5] = experiment: Effect on HBV replication, compound added after infection (intracellular HBV RNA); type: cell-based, Hepatitis B virus (genotype D); details: compound added at 3 dpi, harvested at 6 dpi, HepG2/NTCPA3, HBV 1,000 GEq/cell
Experimental: The resulting cells were harvested at 6 dpi. The amount of intracellular HBV RNA was quantified by real-time qRT-PCR (black bars) and is presented as the percentage of the control value (DMSO). Cell viability was evaluated (gray bars). Data were calculated from 3 to 5 independent experiments and are expressed as means ± SD.
as §1, with “The amounts of HBs and HBe antigens in culture supernatants were estimated by a chemiluminescent immunoassay (SRL Inc., Tokyo, Japan).” left out

[6] = non-adherent HepG2/NTCPA3 cells, HBV 1,000 GEq/cell, compound from 1 h pre-infection to 1 dpi, HBV RNA at 6 dpi
[7] = non-adherent HepG2/NTCPA3 cells, compound from 1 h pre-infection to 1 dpi

CN1CCCC(n2nc(Cc3ccc(Cl)cc3)c3ccccc3c2=O)CC1 (stereo not drawn) [Azelastine]
IC50 (HBV [1]; [6]): > 30000 nM
Inhibitory effect on HBV infection (in words) (HBV [1]; at 0.01 to 1 μM, non-adherent HepG2/NTCPA3 cells): moderate and significant inhibitory effects
CC50 (in vitro): > 30000 nM

C[C@]12CC[C@H](O)C[C@H]1CC[C@@H]1[C@@H]2CC[C@]2(C)[C@@H](c3ccc(=O)oc3)CC[C@]12O [Bufalin]
IC50 (HBV [1]; HepG2, 1 h): 32.4 ± 11.3 nM
Selectivity Index (HBV [1]): 15.8 ± 4.3
Inhibition of HBV infection (in words) (HBV [1]; [7]): inhibited HBV infection in a dose-dependent manner
Inhibition of HBV infection (in words) (HBV [1]; non-adherent HepG2/NTCPA3 cells, compound from 1 h pre-infection to 1 dpi, listed as bufalin): inhibited HBV infection
CC50 (in vitro): 479 ± 64.7 nM

C[C@@H]1O[C@@H](O[C@H]2CC[C@]3(C=O)[C@H]4CC[C@]5(C)[C@@H](C6=CC(=O)OC6)CC[C@]5(O)[C@@H]4CC[C@]3(O)C2)[C@H](O)[C@H](O)[C@H]1O [Convallatoxin]
IC50 (HBV [1]; HepG2, 1 h): 10.7 ± 3.6 nM
Selectivity Index (HBV [1]): 15.7 ± 4.7
Inhibition of HBV infection (in words) (HBV [1]; [7]): inhibited HBV infection in a dose-dependent manner
CC50 (in vitro): 156 ± 53.8 nM

C[C@H]1O[C@@H](O[C@H]2[C@@H](O)C[C@H](O[C@H]3[C@@H](O)C[C@H](O[C@H]4CC[C@@]5(C)[C@H](CC[C@@H]6[C@@H]5CC[C@]5(C)[C@@H](C7=CC(=O)OC7)CC[C@]65O)C4)O[C@@H]3C)O[C@@H]2C)C[C@H](O)[C@@H]1O [Digitoxin]
IC50 (HBV [1]; [6]): 93.3 ± 15.3 nM
Selectivity Index (HBV [1]): 18.9 ± 3.4
Inhibition of HBV infection (in words) (HBV [1]; [7]): inhibited HBV infection in a dose-dependent manner
CC50 (in vitro): 1730 ± 384 nM

C[C@H]1O[C@@H](O[C@H]2[C@@H](O)C[C@H](O[C@H]3[C@@H](O)C[C@H](O[C@H]4CC[C@@]5(C)[C@H](CC[C@@H]6[C@@H]5C[C@@H](O)[C@]5(C)[C@@H](C7=CC(=O)OC7)CC[C@]65O)C4)O[C@@H]3C)O[C@@H]2C)C[C@H](O)[C@@H]1O [Digoxin]
IC50 (HBV [1]; [6]): > 100 nM
Inhibition of HBV infection (in words) (HBV [1]; [7]): did not inhibit HBV infection
CC50 (in vitro): 1430 ± 277 nM

CC(C)n1c(/C=C/C(O)CC(O)CC(=O)O)c(-c2ccc(F)cc2)c2ccccc21 (stereo not drawn) [Fluvastatin]
IC50 (HBV [1]; [6]): > 30000 nM
Inhibition of HBV infection (in words) (HBV [1]; [7]): did not inhibit; also recorded: not by treatment with fluvastatin
Cytotoxicity (in words) (HepG2/NTCPA3 cells): not cytotoxic
CC50 (in vitro): > 100000 nM

C[C@@H]1O[C@@H](O[C@@H]2C=C3CC[C@@H]4[C@H](CC[C@]5(C)[C@@H](c6ccc(=O)oc6)CC[C@]45O)[C@@]3(C)CC2)[C@H](O)[C@H](O)[C@H]1O [Proscillaridin A]
Amount of supernatant HBe antigen (HBV [2]): reduced
Anti-HBV effect in non-adherent cells compared with adherent cells (HBV [1]; 0, 10 or 30 nM, HBV 1,000 GEq/cell, HBV RNA): similar
IC50 (HBV [1]; [6]): 7.2 ± 2.5 nM
Selectivity Index (HBV [1]): 75.5 ± 26.7
Inhibition of HBV infection (in words) (HBV [1]; [7]): inhibited HBV infection
IC50 (NTCP [3]): 22000 nM
Effect on binding of myr-47WT (200 nM) to the cell surface of HepG2/NTCPA3 (NTCP [4]): negligible effect
CC50 (in vitro): 496 ± 140 nM
Amount of HBV RNA in cells treated after infection (HBV [5]): not decreased; also recorded: did not exhibit an inhibitory effect on the viral replication

CCC(C)(C)C(=O)O[C@H]1C[C@@H](C)C=C2C=C[C@H](C)[C@H](CC[C@@H]3C[C@@H](O)CC(=O)O3)[C@H]21 [Simvastatin]
Inhibition of HBV infection (in words) (HBV [1]): inhibited HBV infection
IC50 (HBV [1]; HepG2, 1 h): 5200 ± 600 nM
CC50 (in vitro): > 30000 nM
Amount of HBV RNA in cells treated after infection (HBV [5]): not decreased; also recorded: did not exhibit an inhibitory effect on the viral replication
